In patent publication US11787799B2 (priority 2015, dated 2023):

Assays:
Poliovirus 1 = assay: microbe, parasite or virus in culture; format: cell-based; conditions: read-out: EC50 PV1
Coxsackievirus B3-H3 = assay: microbe, parasite or virus in culture; format: cell-based; conditions: read-out: EC50 CVB3-H3
Coxsackievirus A9 = assay: microbe, parasite or virus in culture; format: cell-based; conditions: read-out: EC50 COX A9
Echovirus 11 = assay: microbe, parasite or virus in culture; format: cell-based; conditions: read-out: EC50 ECHO11
Enterovirus 71 = assay: microbe, parasite or virus in culture; format: cell-based; conditions: read-out: EC50 EV71
Echovirus 6 = assay: microbe, parasite or virus in culture; format: cell-based; conditions: read-out: EC50 ECHO06
Poliovirus 3 = assay: microbe, parasite or virus in culture; format: cell-based; conditions: read-out: EC50 PV3
Coxsackievirus B4 = assay: microbe, parasite or virus in culture; format: cell-based; conditions: read-out: EC50 CVB4
Coxsackievirus B1 = assay: microbe, parasite or virus in culture; format: cell-based; conditions: read-out: EC50 CVB1
Echovirus 9 = assay: microbe, parasite or virus in culture; format: cell-based; conditions: read-out: EC50 ECHO09
Coxsackievirus B5 = assay: microbe, parasite or virus in culture; format: cell-based; conditions: read-out: EC50 CVB5
Coxsackievirus B2 = assay: microbe, parasite or virus in culture; format: cell-based; conditions: read-out: EC50 CVB2
Echovirus 7 = assay: microbe, parasite or virus in culture; format: cell-based; conditions: read-out: EC50 ECHO07
[1] = tested on: Enterovirus D68/US/KY/14-18953; assay: Antiviral assay, Enterovirus D68 strain US/KY/14-18953 in RD cells; format: cell-based
[2] = tested on: Enterovirus D68/US/Mo/14-18949; assay: Antiviral assay, Enterovirus D68 strain US/Mo/14-18949 in RD cells; format: cell-based
Enterovirus D68/Fermon = assay: Antiviral assay, Enterovirus D68 strain Fermon in RD cells; format: cell-based

Structure (SMILES)	EC50 (Poliovirus 1)	EC50 (Coxsackievirus B3-H3)	EC50 (Coxsackievirus A9)	CC50 (LLC cells)	EC50 (Echovirus 11)	EC50 (Enterovirus 71)	CC50 (HeLa-RW cells)	EC50 (Echovirus 6)	EC50 (Poliovirus 3)	EC50 (Coxsackievirus B4)	EC50 (Coxsackievirus B1)	EC50 (Echovirus 9)	EC50 (Coxsackievirus B5)	EC50 (Coxsackievirus B2)	EC50 (Echovirus 7)	EC50 [1]	EC50 [2]	CC50 (RD cells)	EC50 (Enterovirus D68/Fermon)
CC(C)n1ncc2c(C(=O)Nc3ccccc3F)cc(-c3ccccc3)nc21 [JX-002]	> 25 µM	4.5 ± 1.5 µM	5 µM	> 200 µM	2.9 µM	5.7 ± 1.5 µM	37.5 µM	4.4 ± 0.6 µM	> 25 µM	–	–	–	–	–	–	–	–	–	–
CC(C)n1ncc2c(C(=O)Nc3ccccc3F)cc(-c3ccncc3)nc21 [JX-003]	> 25 µM	5.1 ± 0.1 µM	7 ± 0.8 µM	45 µM	5.3 µM	> 10 µM	37.5 µM	9.2 ± 3.2 µM	> 25 µM	–	–	–	–	–	–	–	–	–	–
CC(C)n1ncc2c(C(=O)Nc3ccccc3F)cc(-c3ccccn3)nc21 [JX-004]	> 25 µM	6.9 ± 0.7 µM	6.1 ± 2.2 µM	100 µM	3.8 µM	> 10 µM	> 200 µM	7.8 ± 1.8 µM	> 25 µM	–	–	–	–	–	–	–	–	–	–
CC(C)n1ncc2c(C(=O)Nc3ccccc3F)cc(-c3cccnc3)nc21 [JX-005]	> 25 µM	7 ± 2.4 µM	7.8 ± 2.6 µM	50 µM	4.5 µM	> 10 µM	37.5 µM	9 µM	> 25 µM	–	–	–	–	–	–	–	–	–	–
CC(C)n1ncc2c(C(=O)Nc3c(F)cccc3F)cc(-c3cccs3)nc21 [JX-009]	> 25 µM	3.2 ± 0.5 µM	4 µM	> 200 µM	2.8 µM	3.4 ± 0.7 µM	> 200 µM	4.9 ± 0.3 µM	> 25 µM	–	–	–	–	–	–	–	–	–	–
CC(C)n1ncc2c(C(=O)Nc3ccccc3F)cc(-c3cncs3)nc21 [JX-010]	> 25 µM	3.3 ± 1.4 µM	3.1 µM	100 µM	3.2 µM	3.7 ± 0.2 µM	> 200 µM	4.2 ± 0.3 µM	> 25 µM	–	–	–	–	–	–	–	–	–	–
CC(C)n1ncc2c(C(=O)Nc3ccc(F)c(F)c3)cc(-c3cccs3)nc21 [JX-015]	> 25 µM	1.3 ± 0.1 µM	1.2 µM	> 200 µM	–	–	> 200 µM	1.3 ± 0.1 µM	> 25 µM	3.1 µM	2.3 µM	0.6 µM	2.3 µM	–	–	–	–	–	–
CC(C)n1ncc2c(C(=O)Nc3cccc(F)c3)cc(-c3cccs3)nc21 [JX-021]	> 25 µM	1.3 ± 0.2 µM	1.6 µM	> 200 µM	–	2.4 ± 0.8 µM	> 200 µM	1.5 ± 0.5 µM	> 25 µM	2.6 ± 0.5 µM	2.6 ± 0.5 µM	1.2 µM	2.3 µM	2.6 ± 0.5 µM	2.9 µM	–	–	–	–
CC(C)n1ncc2c(C(=O)Nc3ccc(F)cc3)cc(-c3ccco3)nc21 [JX-026]	> 25 µM	2.4 µM	–	> 200 µM	–	2.6 ± 0.3 µM	> 200 µM	2.4 µM	> 25 µM	3.3 µM	3.3 µM	–	3.3 µM	3.3 µM	–	1.3 ± 0.2 µM	1 ± 0.02 µM	> 200 µM	1.2 µM
CC(C)n1ncc2c(C(=O)Nc3ccncn3)cc(-c3cccs3)nc21 [JX-043]	> 10 µM	0.6 µM	0.5 µM	50 µM	–	0.5 ± 0.1 µM	20 µM	0.2 µM	> 10 µM	0.5 µM	0.6 µM	–	0.6 µM	0.6 µM	0.7 µM	–	–	–	–
CC(C)n1ncc2c(C(=O)Nc3ccc(S(C)(=O)=O)cc3)cc(-c3cccs3)nc21 [JX-047]	> 10 µM	0.6 µM	0.5 µM	50 µM	–	0.5 ± 0.1 µM	200 µM	0.3 µM	> 10 µM	0.6 µM	0.6 µM	–	0.6 µM	0.6 µM	0.8 µM	0.3 µM	0.16 ± 0.04 µM	75 µM	0.3 µM
